According to patent publication US4851521A, “Esters of hyaluronic acid” (priority 1985, dated 1989):

Columns and labels:
[1] = Absorption and bioavailability: plasma levels of hydrocortisone in rats; type: in vivo, male Sprague-Dawley rats; conditions: for average plasmatic level of hydrocortisone / Ka: s.c.; for average plasmatic level of hydrocortisone: average of 4 values; for Ka: HYC 6.5 mg/kg
Protocol: Male Sprague-Dawley rats, with a body weight of 250-350 gr were used, obtained from Charles River-Calco (Como), fed ad libitum with water and compound feed in pellets, with the code name of 4RF 21, produced by "Italiana Mangimi", licensee of Charles River.
Hydrocortisone was administered in the form of sodium hemisuccinate salt at the dose of 1.34 mg/kg (corresponding to 1 mg/kg of hydrocortisone base) by general intravenous route and at the dose of 1.34 mg/kg and 2.68 mg/ kg (corresponding to 2 mg/ kg of hydrocortisone base) by subcutaneouos route (the i.v. route was considered in order to determine the pharmacokinetic parameters which serve as a comparison for the evaluation of absorption of any other administration route).
The three HYC derivatives were administered by subcutaneous route at the dose of 6.5 and 13 mg/kg (doses corresponding to about 1 and 2 mg/kg in hydrocortisone base). […] All the compounds were injected at a constant volume of 1 ml/kg.
After administration, 0.3 ml of blood was drawn from each animal by cardiac puncture in the presence of anticoagulant (sodium heparin).
Blood drawing times were as follows: *15 mins, 30 mins, 60 mins, 120 mins, 180 min, 300 mins, 360 mins, 420 mins, 480 mins (*limited to the intraveneous route).
The hydrocortisone was dosed by radioimmunoassay method (Cortisolo Kit, Biodata, cod. 10394) using iodate tracing. […] The linearity of the method comes between 1 and 1000 ng/ml. The observation limit is 1 ng/ml.
The dosage of the cortisolemia in the rat is not influenced either by the base levels or by the circadian rhythms of this hormone, as the metabolic pattern of the endogenous glucocorticoid hormones in the rat, leads to the production of corticosterone and not cortisol (see E. L. Green: Biology of the laboratory mouse.)
In Table 3 are reported the results of the average plasma levels of hydrocortisone, after i.v. and s.c. injection (1 and 2 mg/kg). […] In Table 4 are reported the pharmacokinetic parameters of cortisol calculated graphically from the plasmatic decline curves. In Table 3 are reported the average levels of cortisol after subcutaneous administration of the three HYC derivatives at doses of 6.5 and 13 mg/kg (corresponding to about 1 and 2 mg/kg in hydrocortisone base). In Table 4 are reported the pharmacokinetic parameters relative to cortisol calculated graphically with the method of residues from the plasma absorption curve of the three HYC products.

[2] = test system: dextran-induced aseptic (exudative) phlogosis in rabbit eye; test: Anti-inflammatory activity: dextran-induced aseptic (exudative) phlogosis in rabbit eye; type: in vivo; conditions: for eyes without signs of phlogosis out of the total number of eyes treated: 3 drops every 6 hours, 4 treated eyes
Protocol: 9 hyaluronic esters of cortisone, hydrocortisone and fluorocortisone (9 fluorohydrocortisone) identified by the code names HYC1-HYC9 were tested. Table 1 describes these compounds and gives the percentages of the number of carboxylic groups of HY which are esterified with the above corticosteroids, and where applicable the percentage esterified with simple aliphatic alcohols and those salified with alkaline metals (Na):
Aseptic (exudative) phlogosis was induced in 48 rabbits by intraocular injection of dextran (1% in saline, 0.1 ml). The various products were administered by instillation in the right eye (RE) of the rabbits, while in the left eye (LE) only vehicle was instilled.
The treament (3 drops every 6 hours) was begun immediately after the injection of dextran and was continued for 16 days.
Both eyes of each rabbit were observed through a slit lamp. In particular the following were examined: the state of the conjunctiva and corneal epithelium, the anterior chamber (presence of Tyndall effect), state of the iris and of the posterior segment of the eye. With a Goldmann lens, the state of the back of the eye was examined. The presence of signs of inflammation (hyperemia, exudate, cloudiness of the liquids, etc.) was recorded.
Values are expressed as percentages (number of eyes without signs of phlogosis out of the total number of eyes treated). In brackets are the number of treated eyes.

horny layer (skin) = test: Skin hydration after topical application (corneometer); type: in vivo, human (healthy volunteers); conditions: 0.2% in ointment, single administration, average for 10 subjects
Protocol: In order to establish a comparison between hyaluronic acid and its derivatives of the present invention, some experiments were carried out to instrumentally evaluate, after topical application, the hydrating properties of the compounds in examination. All the compounds were […] concentration of 0.2% in an ointment the composition of which was as follows: […] Each volunteer was treated (single administration) with all the formulations in examination, which were applied (1 gr./ointment) to the inside surface of each forearm, distinguishing with a dermographic pencil the application zone (about 25 cm^2) of each product and standardizing the procedure as far as possible. To the right forearm were applied the compounds known as […]9, while to the left were applied HYAFF10, placebo and hyaluronic acid. […] Most particularly, the dielectric strength of the water was measured (in 0.8 seconds), after application of the sensor (condenser) to the skin surface. […] Registrations were carried out in constant humidity conditions.

[3] = 10 days from start of phlogosis
[4] = 12 days from start of phlogosis
[5] = 14 days from start of phlogosis
[6] = 16 days from start of phlogosis

Compound | average plasmatic level of hydrocortisone ([1]; 6.5 mg/kg, 30 min) [ng/mL] | average plasmatic level of hydrocortisone ([1]; 6.5 mg/kg, 60 min) [ng/mL] | average plasmatic level of hydrocortisone ([1]; 6.5 mg/kg, 120 min) [ng/mL] | average plasmatic level of hydrocortisone ([1]; 6.5 mg/kg, 180 min) [ng/mL] | average plasmatic level of hydrocortisone ([1]; 6.5 mg/kg, 360 min) [ng/mL] | average plasmatic level of hydrocortisone ([1]; 6.5 mg/kg, 420 min) [ng/mL] | average plasmatic level of hydrocortisone ([1]; 6.5 mg/kg, 480 min) [ng/mL] | average plasmatic level of hydrocortisone ([1]; 13 mg/kg, 30 min) [ng/mL] | average plasmatic level of hydrocortisone ([1]; 13 mg/kg, 60 min) [ng/mL] | average plasmatic level of hydrocortisone ([1]; 13 mg/kg, 120 min) [ng/mL] | average plasmatic level of hydrocortisone ([1]; 13 mg/kg, 180 min) [ng/mL] | average plasmatic level of hydrocortisone ([1]; 13 mg/kg, 300 min) [ng/mL] | eyes without signs of phlogosis out of the total number of eyes treated ([2]; 2 days from start of phlogosis) [%] | eyes without signs of phlogosis out of the total number of eyes treated ([2]; 4 days from start of phlogosis) [%] | eyes without signs of phlogosis out of the total number of eyes treated ([2]; 6 days from start of phlogosis) [%] | eyes without signs of phlogosis out of the total number of eyes treated ([2]; 8 days from start of phlogosis) [%] | eyes without signs of phlogosis out of the total number of eyes treated [2, 3] [%] | eyes without signs of phlogosis out of the total number of eyes treated [2, 4] [%] | eyes without signs of phlogosis out of the total number of eyes treated [2, 5] [%] | eyes without signs of phlogosis out of the total number of eyes treated [2, 6] [%] | also measured
(mixed) ethanol and hydrocortisone ester (C21) of hyaluronic acid (HY) [HYC5] | 33.41 | 49.52 | 60.52 | 61.17 | 42.44 | 30.43 | 25.85 | 26.55 | 38.77 | 41.56 | 44.81 | 32.51 | 0.0 | 0.0 | 25.0 | 50.0 | 50.0 | 100.0 | 100.0 | 100.0 | average plasmatic level of hydrocortisone ([1]; 13 mg/kg, 360 min): 31.92 ng/mL; average plasmatic level of hydrocortisone ([1]; 13 mg/kg, 420 min): 26.17 ng/mL; average plasmatic level of hydrocortisone ([1]; 13 mg/kg, 480 min): 22.54 ng/mL; Ka [1]: 0.65 h⁻¹; antiinflammatory activity (in words) ([2]; compared with the corresponding cortisones): most efficient of these derivatives
benzylester of hyaluronic acid (HY) [HYAFF11] | – | – | – | – | – | – | – | – | – | – | – | – | – | – | – | – | – | – | – | – | solubility in DMSO: 200 mg/mL
C[C@]12CCC(=O)C=C1CC[C@@H]1[C@@H]2[C@@H](O)C[C@@]2(C)[C@H]1CC[C@]2(O)C(=O)CO [Hydrocortisone, hydrocortisone, reference compound] | – | – | – | – | – | – | – | – | – | – | – | – | 0.0 | 0.0 | 0.0 | 25.0 | 25.0 | 50.0 | 100.0 | 100.0 | linearity of kinetics (in words) ([1]; cortisol plasma kinetics, dose dependence): linear; Cmax (in words) ([1]; rat, in vivo): the same as the i.v. route levels at the same dose; Tmax ([1]; rat, in vivo, sc): ~30 min; AUC at 8 h ([1]; rat, in vivo, sc, 1 mg/kg): 192 ng·h/mL; Tmax ([1]; rat, in vivo, sc, 1 mg/kg): 30 min; bioavailability ([1]; rat, in vivo, sc, 1 mg/kg): 70.3%; half-life ([1]; rat, in vivo, sc, 1 mg/kg): 270 min; k el ([1]; rat, in vivo, sc, 1 mg/kg): 4.17e-05 s⁻¹
(partial and mixed) ethanol and hydrocortisone ester (LC21) of hyaluronic acid (HY) [HYC8] | 33.75 | 45.23 | 44.75 | 41.80 | 26.10 | 20.50 | 17.60 | 34.62 | 51.69 | 108.01 | 76.64 | 54.66 | 0.0 | 0.0 | 0.0 | 25.0 | 50.0 | 100.0 | 100.0 | 100.0 | average plasmatic level of hydrocortisone ([1]; 6.5 mg/kg, 300 min): 30.00 ng/mL; average plasmatic level of hydrocortisone ([1]; 13 mg/kg, 360 min): 47.17 ng/mL; average plasmatic level of hydrocortisone ([1]; 13 mg/kg, 420 min): 42.60 ng/mL; average plasmatic level of hydrocortisone ([1]; 13 mg/kg, 480 min): 37.03 ng/mL; Ka [1]: 0.94 h⁻¹
(partial) butyl ester of hyaluronic acid (HY) [HYAFF10] | – | – | – | – | – | – | – | – | – | – | – | – | – | – | – | – | – | – | – | – | x Δ% degree of hydration of the corneal layer, 1st hr (horny layer (skin)): 68.8%; x Δ% degree of hydration of the corneal layer, 3rd hr (horny layer (skin)): 57.0%; x Δ% degree of hydration of the corneal layer, 6th hr (horny layer (skin)): 27.5%; x Δ% degree of hydration of the corneal layer, 24th hr (horny layer (skin)): 8.3%
HYALURONIC ACID [reference compound] | – | – | – | – | – | – | – | – | – | – | – | – | – | – | – | – | – | – | – | – | x Δ% degree of hydration of the corneal layer, 1st hr (horny layer (skin)): 54.7%; x Δ% degree of hydration of the corneal layer, 3rd hr (horny layer (skin)): 37.6%; x Δ% degree of hydration of the corneal layer, 6th hr (horny layer (skin)): 19.7%; x Δ% degree of hydration of the corneal layer, 24th hr (horny layer (skin)): 5.3%
